Results: PubChem BioAssay (NCI)
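These data come from cells grown in 96-well plates and exposed to compound for 48 hours at five concentrations. TGI denotes the concentration required for complete inhibition of growth.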

Assays:
Assay in all cases: inhibition of tumour cell growth, NCI panel, 48 h
786-0 renal = test system: 786-0 renal
A498 renal = test system: A498 renal
A549 NSCLC = test system: A549 NSCLC
ACHN renal = test system: ACHN renal
CCRF-CEM leukemia = test system: CCRF-CEM leukemia
COLO 205 colon = test system: COLO 205 colon
DLD-1 colon = test system: DLD-1 colon
DMS 114 small cell lung = test system: DMS 114 small cell lung
DMS 273 small cell lung = test system: DMS 273 small cell lung
EKVX NSCLC = test system: EKVX NSCLC
HCC-2998 colon = test system: HCC-2998 colon
HCT-116 colon = test system: HCT-116 colon
HL-60(TB) leukemia = test system: HL-60(TB) leukemia
HOP-92 NSCLC = test system: HOP-92 NSCLC
HT29 colon = test system: HT29 colon
IGROV1 ovarian = test system: IGROV1 ovarian
K-562 leukemia = test system: K-562 leukemia
KM12 colon = test system: KM12 colon
KM20L2 colon = test system: KM20L2 colon
LOX IMVI melanoma = test system: LOX IMVI melanoma
LXFL 529 NSCLC = test system: LXFL 529 NSCLC
M14 melanoma = test system: M14 melanoma
M19-MEL melanoma = test system: M19-MEL melanoma
MOLT-4 leukemia = test system: MOLT-4 leukemia
NCI-H23 lung = test system: NCI-H23 lung
NCI-H460 lung = test system: NCI-H460 lung
NCI-H522 lung = test system: NCI-H522 lung
OVCAR-3 ovarian = test system: OVCAR-3 ovarian
OVCAR-4 ovarian = test system: OVCAR-4 ovarian
OVCAR-5 ovarian = test system: OVCAR-5 ovarian
OVCAR-8 ovarian = test system: OVCAR-8 ovarian
RPMI-8226 leukemia = test system: RPMI-8226 leukemia
RXF 393 renal = test system: RXF 393 renal
SF-268 CNS = test system: SF-268 CNS
SF-295 CNS = test system: SF-295 CNS
SF-539 CNS = test system: SF-539 CNS
SK-MEL-28 melanoma = test system: SK-MEL-28 melanoma
SK-MEL-5 melanoma = test system: SK-MEL-5 melanoma
SK-OV-3 ovarian = test system: SK-OV-3 ovarian
SN12C renal = test system: SN12C renal
SNB-19 CNS = test system: SNB-19 CNS
SNB-75 CNS = test system: SNB-75 CNS
SNB-78 CNS = test system: SNB-78 CNS
SR leukemia = test system: SR leukemia
SW-620 colon = test system: SW-620 colon
TK-10 renal = test system: TK-10 renal
U251 CNS = test system: U251 CNS
UACC-257 melanoma = test system: UACC-257 melanoma
UACC-62 melanoma = test system: UACC-62 melanoma
UO-31 renal = test system: UO-31 renal
HCT-15 colon = test system: HCT-15 colon
MALME-3M melanoma = test system: MALME-3M melanoma
NCI-H226 lung = test system: NCI-H226 lung
SK-MEL-2 melanoma = test system: SK-MEL-2 melanoma
CAKI-1 renal = test system: CAKI-1 renal
HOP-62 NSCLC = test system: HOP-62 NSCLC

O=c1[nH]c(=O)n(C2OC(CO)C(N(O)Cc3ccc(F)cc3)C2O)cc1Br (stereo unspecified)
TGI (786-0 renal): > 100 µM
TGI (A498 renal): > 100 µM
TGI (A549 NSCLC): > 100 µM
TGI (ACHN renal): > 100 µM
TGI (CCRF-CEM leukemia): > 100 µM
TGI (COLO 205 colon): > 100 µM
TGI (DLD-1 colon): > 100 µM
TGI (DMS 114 small cell lung): > 100 µM
TGI (DMS 273 small cell lung): > 100 µM
TGI (EKVX NSCLC): > 100 µM
TGI (HCC-2998 colon): > 100 µM
TGI (HCT-116 colon): > 100 µM
TGI (HL-60(TB) leukemia): > 100 µM
TGI (HOP-92 NSCLC): > 100 µM
TGI (HT29 colon): > 100 µM
TGI (IGROV1 ovarian): > 100 µM
TGI (K-562 leukemia): > 100 µM
TGI (KM12 colon): > 100 µM
TGI (KM20L2 colon): > 100 µM
TGI (LOX IMVI melanoma): > 100 µM
TGI (LXFL 529 NSCLC): > 100 µM
TGI (M14 melanoma): > 100 µM
TGI (M19-MEL melanoma): > 100 µM
TGI (MOLT-4 leukemia): > 100 µM
TGI (NCI-H23 lung): > 100 µM
TGI (NCI-H460 lung): > 100 µM
TGI (NCI-H522 lung): > 100 µM
TGI (OVCAR-3 ovarian): > 100 µM
TGI (OVCAR-4 ovarian): > 100 µM
TGI (OVCAR-5 ovarian): > 100 µM
TGI (OVCAR-8 ovarian): > 100 µM
TGI (RPMI-8226 leukemia): > 100 µM
TGI (RXF 393 renal): > 100 µM
TGI (SF-268 CNS): > 100 µM
TGI (SF-295 CNS): > 100 µM
TGI (SF-539 CNS): > 100 µM
TGI (SK-MEL-28 melanoma): > 100 µM
TGI (SK-MEL-5 melanoma): > 100 µM
TGI (SK-OV-3 ovarian): > 100 µM
TGI (SN12C renal): > 100 µM
TGI (SNB-19 CNS): > 100 µM
TGI (SNB-75 CNS): > 100 µM
TGI (SNB-78 CNS): > 100 µM
TGI (SR leukemia): > 100 µM
TGI (SW-620 colon): > 100 µM
TGI (TK-10 renal): > 100 µM
TGI (U251 CNS): > 100 µM
TGI (UACC-257 melanoma): > 100 µM
TGI (UACC-62 melanoma): > 100 µM
TGI (UO-31 renal): > 100 µM

Cn1c(=O)c2ccccc2c2nc3ccccc3nc21
TGI (786-0 renal): > 100 µM
TGI (A549 NSCLC): > 100 µM
TGI (ACHN renal): > 100 µM
TGI (COLO 205 colon): > 100 µM
TGI (DMS 114 small cell lung): > 100 µM
TGI (DMS 273 small cell lung): > 100 µM
TGI (EKVX NSCLC): > 100 µM
TGI (HCC-2998 colon): > 100 µM
TGI (HCT-116 colon): > 100 µM
TGI (HCT-15 colon): > 100 µM
TGI (HT29 colon): > 100 µM
TGI (IGROV1 ovarian): > 100 µM
TGI (K-562 leukemia): > 100 µM
TGI (KM12 colon): > 100 µM
TGI (KM20L2 colon): > 100 µM
TGI (LXFL 529 NSCLC): > 100 µM
TGI (M19-MEL melanoma): > 100 µM
TGI (MALME-3M melanoma): > 100 µM
TGI (MOLT-4 leukemia): > 100 µM
TGI (NCI-H226 lung): > 100 µM
TGI (NCI-H23 lung): > 100 µM
TGI (OVCAR-5 ovarian): > 100 µM
TGI (OVCAR-8 ovarian): > 100 µM
TGI (RPMI-8226 leukemia): > 100 µM
TGI (RXF 393 renal): > 100 µM
TGI (SF-268 CNS): > 100 µM
TGI (SF-295 CNS): > 100 µM
TGI (SF-539 CNS): > 100 µM
TGI (SK-MEL-2 melanoma): > 100 µM
TGI (SK-MEL-28 melanoma): > 100 µM
TGI (SK-MEL-5 melanoma): > 100 µM
TGI (SK-OV-3 ovarian): > 100 µM
TGI (SN12C renal): > 100 µM
TGI (SNB-19 CNS): > 100 µM
TGI (SNB-75 CNS): 58.9 µM
TGI (SNB-78 CNS): > 100 µM
TGI (SR leukemia): > 100 µM
TGI (SW-620 colon): > 100 µM
TGI (TK-10 renal): > 100 µM
TGI (U251 CNS): > 100 µM
TGI (UACC-257 melanoma): > 100 µM
TGI (UACC-62 melanoma): > 100 µM
TGI (UO-31 renal): > 100 µM

CCOC1=CP(=O)(OCC)CC(C)=C1Cl (stereo unspecified)
TGI (786-0 renal): > 100 µM
TGI (A498 renal): > 100 µM
TGI (A549 NSCLC): > 100 µM
TGI (ACHN renal): > 100 µM
TGI (CAKI-1 renal): > 100 µM
TGI (CCRF-CEM leukemia): > 100 µM
TGI (COLO 205 colon): 25.2 µM
TGI (DLD-1 colon): > 100 µM
TGI (DMS 114 small cell lung): > 100 µM
TGI (DMS 273 small cell lung): 75.2 µM
TGI (EKVX NSCLC): > 100 µM
TGI (HCC-2998 colon): > 100 µM
TGI (HCT-116 colon): > 100 µM
TGI (HL-60(TB) leukemia): > 100 µM
TGI (HOP-62 NSCLC): > 100 µM
TGI (HOP-92 NSCLC): > 100 µM
TGI (HT29 colon): > 100 µM
TGI (IGROV1 ovarian): > 100 µM
TGI (K-562 leukemia): > 100 µM
TGI (KM12 colon): > 100 µM
TGI (KM20L2 colon): > 100 µM
TGI (LOX IMVI melanoma): > 100 µM
TGI (LXFL 529 NSCLC): > 100 µM
TGI (M14 melanoma): > 100 µM
TGI (M19-MEL melanoma): > 100 µM
TGI (MALME-3M melanoma): > 100 µM
TGI (MOLT-4 leukemia): > 100 µM
TGI (NCI-H226 lung): > 100 µM
TGI (NCI-H23 lung): > 100 µM
TGI (NCI-H460 lung): > 100 µM
TGI (NCI-H522 lung): > 100 µM
TGI (OVCAR-3 ovarian): > 100 µM
TGI (OVCAR-5 ovarian): > 100 µM
TGI (OVCAR-8 ovarian): > 100 µM
TGI (RPMI-8226 leukemia): > 100 µM
TGI (SF-268 CNS): > 100 µM
TGI (SF-295 CNS): > 100 µM
TGI (SF-539 CNS): > 100 µM
TGI (SK-MEL-2 melanoma): > 100 µM
TGI (SK-MEL-28 melanoma): > 100 µM
TGI (SK-MEL-5 melanoma): > 100 µM
TGI (SK-OV-3 ovarian): > 100 µM
TGI (SN12C renal): > 100 µM
TGI (SNB-19 CNS): > 100 µM
TGI (SNB-75 CNS): > 100 µM
TGI (SNB-78 CNS): > 100 µM
TGI (SR leukemia): > 100 µM
TGI (SW-620 colon): > 100 µM
TGI (TK-10 renal): > 100 µM
TGI (U251 CNS): > 100 µM
TGI (UACC-257 melanoma): > 100 µM
TGI (UACC-62 melanoma): > 100 µM
TGI (UO-31 renal): > 100 µM
